Legend:
[1] = tested on: HEK293T-Gα16gust44 cells transfected with empty vector (mock); assay: Calcium imaging assay (FLIPR), empty vector control (mock); assay type: cell-based
Protocol: This set of bile acids was chosen because of their commercial availability in high purities, their diversity within the class of bile acids and their previous detection and quantitation in human blood. Stock solutions were prepared in DMSO.
As basal growth medium for the HEK293T-Gα16gust44 cell line[17],[59] served Dulbecco’s modified eagle medium (DMEM) (Thermo Fisher Scientific, Darmstadt, Germany) supplemented with 10 % fetal bovine serum (Sigma-Aldrich, Steinheim, Germany), 2 mM L-glutamine (Sigma-Aldrich, Steinheim, Germany), 100 units/ml penicillin (Sigma Aldrich, Steinheim, Germany) and 100 µg/ml streptomycin (Sigma Aldrich, Steinheim, Germany). Growth conditions were 37 °C, 5 % CO2 and saturated air-humidity[60].
HEK293T-Gα16gust44 cells were seeded on poly-D-lysine (10 µg/ml) coated 96-well plates to reach a confluence of 40-60 % the next day. For transient transfection 150 ng of plasmid DNA containing the receptor of interest and 0.3 µl lipofectamine 2000 (Thermo Fisher Scientific, Darmstadt, Germany) per well were used and transfection took place according to the manual of lipofectamine 2000. […] The empty vector DNA (mock) was transfected as negative control[14],[41].
Cells were loaded using the calcium-sensitive fluorescent dye Fluo-4-AM (Abcam, Cambridge, Great Britain) in the presence of 2.5 mM probenecid (Sigma-Aldrich, Steinheim, Germany) the day after transfection[13],[41]. 1 h after loading, cells were washed with C1 buffer using a BioTek Cell Washer, incubated in the dark for half an hour and washed again. For automated agonist application and measurement of fluorescence changes, a FLIPR^TETRA device (Molecular Devices, San José, United States) was used. Viability of cells was tested by application of 100 nM Somatostatin 14 (Bachem, Bubendorf, Switzerland)[42].
Measured data were negative control corrected by subtracting the signal of the mock-transfected cells and exported to Microsoft Excel using the FLIPR software ScreenWorks 4.2. In Microsoft Excel software, standardization of maximum fluorescence intensities to the basal fluorescence and normalization to the buffer-only control was done to calculate the relative fluorescence changes (ΔF/F).
Initial screening experiments performed in duplicate wells were confirmed by at least one replication and representative traces were selected for display. All dose-response relationships were determined by three independent experiments (biological replicates) performed in duplicates (technical replicates). Threshold concentrations, defined as lowest substance concentrations leading to statistically significant elevated fluorescence changes in receptor-transfected cells compared with empty vector-transfected cells, were determined using SigmaPlot with Student’s t-test to evaluate statistical significance (p < 0.01).

[2] = tested on: T2R02 of Latimeria chalumnae; parameters: method as in PMID 33355666; settings: cited from earlier work
[3] = Mock, sheet TAS2R14, conc. 0,01 mM
[4] = Mock, sheet TAS2R14, conc. 0,03 mM
[5] = Mock, sheet TAS2R14, conc. 0,001 mM
[6] = Mock, sheet TAS2R14, conc. 0,003 mM
[7] = conc. 0,01 mM, Mock (sheet TAS2R1)
[8] = conc. 0,001 mM, Mock (sheet TAS2R1)
[9] = conc. 0,003 mM, Mock (sheet TAS2R1)

In the case of C[C@H](CCC(=O)NCCS(=O)(=O)O)[C@H]1CC[C@H]2[C@@H]3[C@H](O)C[C@@H]4C[C@H](O)CC[C@]4(C)[C@H]3C[C@H](O)[C@]12C [Taurocholic Acid, taurocholic acid], the “Δ F/F” value ([1]; Conc. 0,01 mM, Mock (sheet TAS2R39)) is reported as -0.01563, the “Δ F/F” value ([1]; Conc. 0,1 mM, Mock (sheet TAS2R39)) is reported as -0.02822 and the “Δ F/F” value ([1]; Conc. 0,03 mM, Mock (sheet TAS2R39)) is reported as -0.0235. For the same molecule, the “Δ F/F” value ([1]; Conc. 0,3 mM, Mock (sheet TAS2R39)) was -0.04268, the “Δ F/F” value ([1]; Conc. 0,001 mM, Mock (sheet TAS2R39)) was -0.0133 and the “Δ F/F” value ([1]; Conc. 1 mM, Mock (sheet TAS2R39)) was -0.07998. For the same molecule, the “Δ F/F” value ([1]; Conc. 0,003 mM, Mock (sheet TAS2R39)) was -0.01654, the “Δ F/F” value ([1]; Mock (sheet Tas2r123), conc. 0,01 mM) was -0.001211 and the “Δ F/F” value ([1]; Mock (sheet Tas2r123), conc. 0,1 mM) was -8.418e-5. The “Δ F/F” value ([1]; Mock (sheet Tas2r123), conc. 0,03 mM) was -0.0003225, the “Δ F/F” value ([1]; Mock (sheet Tas2r123), conc. 0,3 mM) was -0.001149 and the “Δ F/F” value ([1]; Mock (sheet Tas2r123), conc. 0,001 mM) was -0.001993. For the same molecule, the “Δ F/F” value ([1]; Mock (sheet Tas2r123), conc. 0,003 mM) was -0.001321, the “Δ F/F” value ([1]; Mock (sheet Tas2r144), conc. 0,01 mM) was 0.001108 and the “Δ F/F” value ([1]; Mock (sheet Tas2r144), conc. 0,1 mM) was 0.003486. The “Δ F/F” value ([1]; Mock (sheet Tas2r144), conc. 0,03 mM) was 0.0001367, the “Δ F/F” value ([1]; Mock (sheet Tas2r144), conc. 0,3 mM) was -0.000351 and the “Δ F/F” value ([1]; Mock (sheet Tas2r144), conc. 0,003 mM) was -0.001298. The “Δ F/F” value ([1]; Mock, sheet TAS2R4, conc. 0,01 mM) was -0.0002235, the “Δ F/F” value ([1]; Mock, sheet TAS2R4, conc. 0,1 mM) was -0.0008729 and the “Δ F/F” value ([1]; Mock, sheet TAS2R4, conc. 0,03 mM) was 6.044e-5. The “Δ F/F” value ([1]; Mock, sheet TAS2R4, conc. 0,3 mM) was 0.0004439, the “Δ F/F” value ([1]; Mock, sheet TAS2R4, conc. 0,001 mM) was -0.0007938 and the “Δ F/F” value ([1]; Mock, sheet TAS2R4, conc. 0,003 mM) was -0.0007144. The “Δ F/F” value [1, 3] was -0.01747, the “Δ F/F” value ([1]; Mock, sheet TAS2R14, conc. 0,1 mM) was -0.02159 and the “Δ F/F” value [1, 4] was -0.01682. For the same molecule, the “Δ F/F” value ([1]; Mock, sheet TAS2R14, conc. 0,3 mM) was -0.04976, the “Δ F/F” value [1, 5] was -0.01145 and the “Δ F/F” value ([1]; Mock, sheet TAS2R14, conc. 1 mM) was -0.08511. The “Δ F/F” value [1, 6] was -0.01455, the “Δ F/F” value ([1]; Mock, sheet TAS2R46, conc. 0,01 mM) was -0.0238 and the “Δ F/F” value ([1]; Mock, sheet TAS2R46, conc. 0,1 mM) was -0.03213. The “Δ F/F” value ([1]; Mock, sheet TAS2R46, conc. 0,03 mM) was -0.02754, the “Δ F/F” value ([1]; Mock, sheet TAS2R46, conc. 0,3 mM) was -0.04297 and the “Δ F/F” value ([1]; Mock, sheet TAS2R46, conc. 0,001 mM) was -0.01362. The “Δ F/F” value ([1]; Mock, sheet TAS2R46, conc. 1 mM) was -0.07821, the “Δ F/F” value ([1]; Mock, sheet TAS2R46, conc. 0,003 mM) was -0.02261 and the “Δ F/F” value ([1]; Mock, sheet Tas2r108, conc. 0,01 mM) was -0.02048. The “Δ F/F” value ([1]; Mock, sheet Tas2r108, conc. 0,1 mM) was -0.02439, the “Δ F/F” value ([1]; Mock, sheet Tas2r108, conc. 0,03 mM) was -0.01669 and the “Δ F/F” value ([1]; Mock, sheet Tas2r108, conc. 0,3 mM) was -0.04405. For the same molecule, the “Δ F/F” value ([1]; Mock, sheet Tas2r108, conc. 0,001 mM) was -0.01481, the “Δ F/F” value ([1]; Mock, sheet Tas2r108, conc. 1 mM) was -0.07176 and the “Δ F/F” value ([1]; Mock, sheet Tas2r108, conc. 0,003 mM) was -0.01975. For the same molecule, the “Δ F/F” value ([1]; Mock, sheet Tas2r117, conc. 0,01 mM) was 0.0004005, the “Δ F/F” value ([1]; Mock, sheet Tas2r117, conc. 0,1 mM) was 0.0008049 and the “Δ F/F” value ([1]; Mock, sheet Tas2r117, conc. 0,03 mM) was 0.000104. For the same molecule, the “Δ F/F” value ([1]; Mock, sheet Tas2r117, conc. 0,3 mM) was -0.0008737, the “Δ F/F” value ([1]; Mock, sheet Tas2r117, conc. 0,0003 mM) was -0.0001935 and the “Δ F/F” value ([1]; Mock, sheet Tas2r117, conc. 0,001 mM) was -0.001035. The “Δ F/F” value ([1]; Mock, sheet Tas2r117, conc. 0,003 mM) was -0.0005321, the “Δ F/F” value [1, 7] was -0.002439 and the “Δ F/F” value ([1]; conc. 0,1 mM, Mock (sheet TAS2R1)) was -0.002601. For the same molecule, the “Δ F/F” value ([1]; conc. 0,03 mM, Mock (sheet TAS2R1)) was -0.002464, the “Δ F/F” value ([1]; conc. 0,3 mM, Mock (sheet TAS2R1)) was -0.001298 and the “Δ F/F” value [1, 8] was -0.001546. The “Δ F/F” value [1, 9] was -0.002596.

For C[C@H](CCC(=O)O)[C@H]1CC[C@H]2[C@@H]3[C@H](O)C[C@@H]4C[C@H](O)CC[C@]4(C)[C@H]3CC[C@]12C [Chenodeoxycholic Acid, chenodeoxycholic acid], the “Δ F/F” value [1, 3] was -0.007814, the “Δ F/F” value [1, 4] was -0.004111 and the “Δ F/F” value ([1]; Mock, sheet TAS2R14, conc. 0,00003 mM) was -0.01383. The “Δ F/F” value ([1]; Mock, sheet TAS2R14, conc. 0,0001 mM) was -0.0179, the “Δ F/F” value ([1]; Mock, sheet TAS2R14, conc. 0,0003 mM) was -0.01292 and the “Δ F/F” value [1, 5] was -0.005111. For the same molecule, the “Δ F/F” value [1, 6] was -0.006729, the “Δ F/F” value [1, 7] was -0.001385 and the “Δ F/F” value ([1]; conc. 0,00003 mM, Mock (sheet TAS2R1)) was -0.0006042. The “Δ F/F” value ([1]; conc. 0,0001 mM, Mock (sheet TAS2R1)) was -0.001709, the “Δ F/F” value ([1]; conc. 0,0003 mM, Mock (sheet TAS2R1)) was -0.001427 and the “Δ F/F” value [1, 8] was -0.001629. For the same molecule, the “Δ F/F” value [1, 9] was -0.001467 and the “Activation of T2R02” value [2] was “activate”.
